Measurements published in ChEMBL document CHEMBL1153328, “5-Aminomethylbenzimidazoles as potent ITK antagonists” (Bioorg Med Chem Lett, 2009).
≈ marks a conversion by molar mass, not a printed value.

Columns and labels:
[1] = target: T1, Tyrosine-protein kinase ITK/TSK (Homo sapiens, UniProt Q08881); experiment: Binding affinity to ITK by DELFIA-based molecular assay
T1 sequence (Q08881 whole entry): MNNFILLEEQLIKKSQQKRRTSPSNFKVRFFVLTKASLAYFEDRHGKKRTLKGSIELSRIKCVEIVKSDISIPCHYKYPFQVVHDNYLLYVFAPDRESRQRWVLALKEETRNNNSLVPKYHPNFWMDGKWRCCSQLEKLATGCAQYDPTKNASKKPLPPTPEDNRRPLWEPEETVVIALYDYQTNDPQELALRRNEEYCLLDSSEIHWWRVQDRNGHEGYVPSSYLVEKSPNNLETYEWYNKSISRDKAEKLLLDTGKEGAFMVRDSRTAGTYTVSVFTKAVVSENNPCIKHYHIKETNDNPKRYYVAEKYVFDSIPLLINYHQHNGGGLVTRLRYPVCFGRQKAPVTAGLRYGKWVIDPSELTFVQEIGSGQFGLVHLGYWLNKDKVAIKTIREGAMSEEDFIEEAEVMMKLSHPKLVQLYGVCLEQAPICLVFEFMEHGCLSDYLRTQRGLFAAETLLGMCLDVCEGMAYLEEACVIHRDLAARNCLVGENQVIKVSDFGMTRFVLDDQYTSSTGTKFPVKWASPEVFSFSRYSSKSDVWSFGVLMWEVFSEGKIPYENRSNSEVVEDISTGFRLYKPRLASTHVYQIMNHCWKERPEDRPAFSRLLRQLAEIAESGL

[2] = target: T1, Tyrosine-protein kinase ITK/TSK; experiment: Inhibition of ITK in presence of 1 mM ATP
Insulin receptor = Insulin receptor (Homo sapiens, UniProt P06213); experiment: Inhibition of IRK
Sequence of Insulin receptor (P06213 28-758 limits assumed): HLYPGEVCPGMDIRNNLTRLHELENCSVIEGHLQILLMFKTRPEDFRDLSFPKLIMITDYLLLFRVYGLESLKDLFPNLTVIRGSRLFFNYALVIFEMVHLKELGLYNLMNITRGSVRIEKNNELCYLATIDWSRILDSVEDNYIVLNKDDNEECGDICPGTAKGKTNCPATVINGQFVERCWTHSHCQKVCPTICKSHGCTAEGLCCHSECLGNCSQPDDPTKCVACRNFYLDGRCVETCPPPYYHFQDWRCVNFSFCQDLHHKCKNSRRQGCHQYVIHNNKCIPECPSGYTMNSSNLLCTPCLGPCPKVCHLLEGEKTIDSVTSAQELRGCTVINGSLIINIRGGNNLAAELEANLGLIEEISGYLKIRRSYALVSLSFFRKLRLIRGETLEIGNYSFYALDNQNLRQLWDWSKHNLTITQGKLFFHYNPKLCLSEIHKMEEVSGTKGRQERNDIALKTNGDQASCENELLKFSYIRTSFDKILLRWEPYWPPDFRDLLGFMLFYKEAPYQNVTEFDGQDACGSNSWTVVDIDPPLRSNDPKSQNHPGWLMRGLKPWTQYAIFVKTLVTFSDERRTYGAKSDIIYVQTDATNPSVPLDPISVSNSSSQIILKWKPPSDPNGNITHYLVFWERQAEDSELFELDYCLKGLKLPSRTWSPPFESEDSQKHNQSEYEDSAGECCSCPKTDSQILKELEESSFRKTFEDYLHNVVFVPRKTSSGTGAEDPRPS
Sequence of Insulin receptor (P06213 763-1382 limits assumed): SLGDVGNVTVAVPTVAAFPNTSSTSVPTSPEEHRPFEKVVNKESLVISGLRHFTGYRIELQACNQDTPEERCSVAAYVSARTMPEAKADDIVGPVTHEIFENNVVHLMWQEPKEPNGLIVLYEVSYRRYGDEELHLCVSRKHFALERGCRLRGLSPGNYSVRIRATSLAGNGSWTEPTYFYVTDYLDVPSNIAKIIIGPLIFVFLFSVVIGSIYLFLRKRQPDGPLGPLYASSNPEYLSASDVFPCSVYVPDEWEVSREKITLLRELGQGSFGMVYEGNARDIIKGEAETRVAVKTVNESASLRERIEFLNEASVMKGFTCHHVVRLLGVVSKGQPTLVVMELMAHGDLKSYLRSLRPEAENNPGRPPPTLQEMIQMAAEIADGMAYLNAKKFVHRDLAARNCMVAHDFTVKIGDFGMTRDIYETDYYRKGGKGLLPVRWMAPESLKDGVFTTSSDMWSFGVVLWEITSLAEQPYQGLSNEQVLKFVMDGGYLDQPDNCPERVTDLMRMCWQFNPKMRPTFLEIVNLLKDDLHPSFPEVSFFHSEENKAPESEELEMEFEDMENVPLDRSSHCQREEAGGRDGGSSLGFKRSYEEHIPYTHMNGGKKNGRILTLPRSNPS

[3] = target: T1, Tyrosine-protein kinase ITK/TSK; experiment: Antagonist activity at human ITK expressed in BTK deficient DT40 cells assessed as inhibition of B cell receptor-stimulated calcium influx; assay type: functional, cell-based
T-cell = experiment: Inhibition of anti-CD3 and anti-CD28 monoclonal antibody-stimulated IL2 secretion in human CD4+ T cells; assay type: functional, cell-based
Blood = experiment: Inhibition of staphylococcal entertoxin B-stimulated IL2 secretion in human whole blood; assay type: functional, tissue-based
[4] = Solubility at pH 7; assay type: physicochemical; conditions: buffer
[5] = Protein binding in plasma by dialysis method; assay type: ADME, cell-free; conditions: read-out: PPB (converted)
[6] = Terminal half life in Sprague-Dawley rat at 1 mg/kg, iv; assay type: ADME, organism-based; parameters: dose 1 mg/kg, route intravenous; conditions: in vivo, read-out: beta t1/2 (converted)
[7] = Volume of distribution at steady state in Sprague-Dawley rat at 1 mg/kg, iv; assay type: ADME, organism-based; parameters: dose 1 mg/kg, route intravenous; conditions: in vivo, read-out: Vdss
[8] = Plasma clearance in Sprague-Dawley rat at 1 mg/kg, iv; assay type: ADME, organism-based; parameters: dose 1 mg/kg, route intravenous
[9] = AUC (0 to infinity) in Sprague-Dawley rat at 1 mg/kg, iv; assay type: ADME, organism-based; parameters: time infinity, dose 1 mg/kg, route intravenous; conditions: plasma
[10] = Tmax in Sprague-Dawley rat at 10 mg/kg, po; assay type: ADME, organism-based; parameters: dose 10 mg/kg, route oral; conditions: in vivo
[11] = Cmax in Sprague-Dawley rat at 10 mg/kg, po; assay type: ADME, organism-based; parameters: dose 10 mg/kg, route oral; conditions: in vivo
[12] = AUC (0 to infinity) in Sprague-Dawley rat at 10 mg/kg, po; assay type: ADME, organism-based; parameters: time infinity, dose 10 mg/kg, route oral; conditions: plasma
[13] = Oral bioavailability in Sprague-Dawley rat at 10 mg/kg; assay type: ADME, organism-based; conditions: in vivo
Mus musculus [14] = experiment: Inhibition of anti-CD3-stimulated IL2 production in po dosed BALB/c mouse administered 5 hrs before anti-CD3 challenge measured after 3 hrs; assay type: functional, organism-based
Mus musculus [15] = experiment: Inhibition of anti-CD3-stimulated IL4 production in po dosed BALB/c mouse administered 5 hrs before anti-CD3 challenge measured after 3 hrs; assay type: functional, organism-based
[16] = Terminal plasma concentration in BALB/c mouse at 15 mg/kg, po after 8 hrs; assay type: ADME, organism-based; parameters: dose 15 mg/kg, route oral; conditions: read-out: Cp(T)
[17] = Terminal plasma concentration in BALB/c mouse at 5 mg/kg, po after 8 hrs; assay type: ADME, organism-based; parameters: dose 5 mg/kg, route oral; conditions: read-out: Cp(T)
[18] = Terminal plasma concentration in BALB/c mouse at 1.5 mg/kg, po after 8 hrs; assay type: ADME, organism-based; parameters: dose 1.5 mg/kg, route oral; conditions: read-out: Cp(T)

SMILES	IC50 [1] [nM]	IC50 [2] [nM]	IC50 (Insulin receptor) [nM]	IC50 [3] [nM]	IC50 (T-cell) [nM]	further results
CC1COCC(C)N1Cc1ccc2c(c1)[nH]/c(=N\C(=O)c1ccc(-c3cn[nH]c3)s1)n2CC(C)(C)O (centres undefined)	1	98	320	3	46	
Cc1ncc(-c2ccc(C(=O)/N=c3\[nH]c4cc(CNc5ccccc5)ccc4n3CC(C)(C)O)s2)o1					460	
CC(C)(O)Cn1/c(=N/C(=O)c2ccc(-c3cn[nH]c3)s2)[nH]c2cc(CN3CCCCC3CO)ccc21 (centres undefined)	3	660	1100	58		
C[C@H](N(C)Cc1ccc2c(c1)[nH]/c(=N\C(=O)c1ccc(-c3cn[nH]c3)s1)n2CC(C)(C)O)C(C)(C)C	1	8	400	3	18	IC50 (Blood): 690 nM
CC(C)(O)Cn1/c(=N/C(=O)c2ccc(-c3cn[nH]c3)s2)[nH]c2cc(CN3CCOCC3)ccc21	2	220	320	13	230	
Cc1ncc(-c2ccc(C(=O)/N=c3\[nH]c4cc(CN(C)C5CCCCC5)ccc4n3CC(C)(C)O)s2)o1			350		230	
Cc1ncc(-c2ccc(C(=O)Nc3nc4cc(N(C)C(=O)c5ccccc5)ccc4n3CC(C)(C)O)s2)o1	3	200	940	110	440	solubility [4]: 2 µg/mL (≈ 3.78 µM); IC50 (Blood): 10000 nM; fraction unbound [5]: 0.013
C[C@H](NCc1ccc2c(c1)[nH]/c(=N\C(=O)c1ccc(-c3cn[nH]c3)s1)n2CC(C)(C)O)C(C)(C)C	1	13	160	4	20	half-life [6]: 2.5 h; Vd [7]: 11.6 L/kg; clearance [8]: 53.1 mL/min/kg; AUC(0-inf) [9]: 314 ng·h/mL; Tmax [10]: 1.2 h; Cmax [11]: 92 ng/mL; AUC(0-inf) [12]: 659 ng·h/mL; bioavailability [13]: 21%; IC50 (Blood): 240 nM; Activity (Mus musculus [14]): Dose-dependent effect; Activity (Mus musculus [15]): Dose-dependent effect; concentration at 8 h [16]: 1300 nM; concentration at 8 h [17]: 400 nM; concentration at 8 h [18]: 100 nM
CC(C)(O)Cn1/c(=N/C(=O)c2ccc(-c3cn[nH]c3)s2)[nH]c2cc(CNCc3ccccc3)ccc21			480		37	
CC(C)(O)Cn1/c(=N/C(=O)c2ccc(-c3cn[nH]c3)s2)[nH]c2cc(CN3CCC(O)C3)ccc21 (centres undefined)	2	310	420	130		
CN(Cc1cccnc1)Cc1ccc2c(c1)[nH]/c(=N\C(=O)c1ccc(-c3cn[nH]c3)s1)n2CC(C)(C)O			310		91	
CN(Cc1ccc2c(c1)[nH]/c(=N\C(=O)c1ccc(-c3cn[nH]c3)s1)n2CC(C)(C)O)c1ccccc1			5500			
CNCc1ccc2c(c1)[nH]/c(=N\C(=O)c1ccc(-c3cn[nH]c3)s1)n2CC(C)(C)O			500			
Cc1ncc(-c2ccc(C(=O)Nc3nc4cc(CNC5CCCCC5)ccc4n3CC(C)(C)O)s2)o1	8	940	700	210	180	
CC(C)(O)Cn1/c(=N/C(=O)c2ccc(-c3cn[nH]c3)s2)[nH]c2cc(CN3CCCCC3)ccc21	3	250	550	11	120	

Further lines, with some results ahead:

IC50 [1] [nM]	IC50 [2] [nM]	IC50 (Insulin receptor) [nM]	IC50 [3] [nM]	IC50 (T-cell) [nM]	SMILES	further results
		390		150	CN(C)CCN(C)Cc1ccc2c(c1)[nH]/c(=N\C(=O)c1ccc(-c3cn[nH]c3)s1)n2CC(C)(C)O	
4	900	1200	> 5000		CC(C)(O)Cn1c(NC(=O)c2ccc(-c3cn[nH]c3)s2)nc2cc(CN)ccc21	
1	20	93	3	50	C[C@@H](NCc1ccc2c(c1)nc(NC(=O)c1ccc(-c3cn[nH]c3)s1)n2CC(C)(C)O)C(C)(C)C	
1	20	230	2	64	C[C@@H](N(C)Cc1ccc2c(c1)nc(NC(=O)c1ccc(-c3cn[nH]c3)s1)n2CC(C)(C)O)C(C)(C)C	
1	99	400	20	93	CC(C)(O)Cn1c(NC(=O)c2ccc(-c3cn[nH]c3)s2)nc2cc(CNC3CCCCC3)ccc21	
2	390	600	25	23	CCC(C)NCc1ccc2c(c1)nc(NC(=O)c1ccc(-c3cn[nH]c3)s1)n2CC(C)(C)O (centres undefined)	
				130	CN(C)Cc1ccc2c(c1)[nH]/c(=N\C(=O)c1ccc(-c3cn[nH]c3)s1)n2CC(C)(C)O	
2	75	1700	21	150	CC(C)(O)Cn1c(NC(=O)c2ccc(-c3cn[nH]c3)s2)nc2cc(CNc3ccccc3)ccc21	
		360		86	CC(C)CNCc1ccc2c(c1)nc(NC(=O)c1ccc(-c3cn[nH]c3)s1)n2CC(C)(C)O	
2	160	480	13	59	CN(Cc1ccc2c(c1)nc(NC(=O)c1ccc(-c3cn[nH]c3)s1)n2CC(C)(C)O)C1CCCCC1	
